Experimental data reported in US20040242459A1 (priority 2001, published 2004).

Key:
[1] = system: PPAR-α, PPAR-γ and PPAR-δ; assay: Classification of ligands according to their PPAR activity (Table A); parameters: species or system human
[2] = biological target: T1, recombinant human PPARα (GST-PPARα) (Homo sapiens, UniProt Q07869); assay: Scintillation Proximity Assay, displacement of [3H2]Compound A from PPARα; format: binding
T1 construct: The full length human cDNAs for PPARδ and PPARα were subcloned into the pGEX-KT expression vector; made in house; host or cells: E. coli
T1 sequence (Q07869 1-468): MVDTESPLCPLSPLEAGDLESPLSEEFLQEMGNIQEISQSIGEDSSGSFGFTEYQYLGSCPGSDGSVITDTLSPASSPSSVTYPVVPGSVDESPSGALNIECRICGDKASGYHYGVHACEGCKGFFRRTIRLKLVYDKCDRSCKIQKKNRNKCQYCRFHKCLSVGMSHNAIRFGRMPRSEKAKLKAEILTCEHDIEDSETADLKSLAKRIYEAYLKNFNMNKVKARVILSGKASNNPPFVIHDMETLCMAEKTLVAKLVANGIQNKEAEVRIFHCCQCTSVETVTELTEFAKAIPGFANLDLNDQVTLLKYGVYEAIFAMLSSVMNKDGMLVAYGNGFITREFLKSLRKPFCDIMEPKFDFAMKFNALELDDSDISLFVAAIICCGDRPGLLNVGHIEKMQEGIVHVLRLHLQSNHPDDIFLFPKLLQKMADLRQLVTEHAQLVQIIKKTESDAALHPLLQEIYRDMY
Text: (§1) As an approach to identifying human PPAR agonists, a Scintillation Proximity Assay was used to characterize PPAR-γ, PPAR-δ, and PPAR-α ligands.
(§2) Human PPARγ2, human PPARδ and human PPARα were expressed as GST-fusion proteins in E. coli. The full length human cDNA for PPARγ 2 was subcloned into the pGEX-2 T expression vector (Amersham Pharmacia Biotech, Inc.). The full length human cDNAs for PPARδ and PPARα were subcloned into the pGEX-KT expression vector (Amersham Pharmacia Biotech, Inc.). E. coli containing the respective plasmids were propagated, induced, and harvested by centrifugation. The resuspended pellet was broken in a French press and debris removed by centrifugation. Recombinant human PPAR receptors were purified by affinity chromatography on glutathione sepharose. After application to the column, and one wash, receptor was eluted with glutathione. Glycerol (10%) was added to stabilize the receptor and aliquots were stored at −80° C.
(§3) After incubation for ˜16 h at 15° C. with shaking, the assay plates were counted in a Packard Topcount with quench correction.

[3] = system: adjuvant-induced arthritis in female Lewis rats
Protocol: Nine groups of 10 rats each were injected with an emulsion containing 0.5 mg of Mycobacterium butyricum in 0.1 ml of light mineral oil, and a negative control group of 10 rats was not injected with adjuvant. Body weights, primary (injected) and contralateral (non-injected) paw volumes (determined by mercury displacement plethysmography) and lateral radiographs (obtained under Ketamine and Xylazine anesthesia) were determined before (day-1) and at various time points including 21 days following adjuvant injection. The rats were anesthetized with an intramuscular injection of 0.03-0.1 ml of a combination of Ketamine (87 mg/kg) and Xylazine (13 mg/kg) for radiographs and injection of adjuvant. Lateral to medial radiographs were made of both hind paws on days 0 and 21 for using the Faxitron (45 kVp, 30 seconds or 45 kVp, 1 second) and Kodak X-OMAT TL film, and were developed in an automatic processor. […] Specific criteria were used to establish the numerical grade of severity for each radiographic change. The maximum possible score per foot was 26. Compounds or vehicle were administered prophylactically beginning post injection of adjuvant and continuing for 21 days. The Compounds were prepared weekly, refrigerated in the dark until used, and vortex mixed immediately prior to administration. […] The liver, thymus and spleens of all rats were removed and weighed and both hind paws were removed and radiographed.
Two-factor (‘treatment’ and ‘time’) analysis of variance with repeated measures on ‘time’ were applied to the percent changes for body weight and foot volumes and to the rank-transformed radiographic total scores. A post hoc Dunnett's test was conducted to compare the effect of treatments to vehicle. A one-way analysis of variance was applied to the thymic and spleen weights followed by the Dunnett's test to compare the effect of treatments to vehicle.
Compounds or vehicle (0.5% Methocel in sterile water) were administered by oral gavage once daily for 21 days following induction of arthritis in female Lewis rats via the sub plantar injection of 0.1 ml of light mineral oil containing 0.5 mg of Mycobacterium butyricum. Control animals were not injected with adjuvant. Body weights were measured 1 day prior to (i.e. day 0) and at 14 and 21 days post induction of arthritis. The data in Table 1 represent the mean increase or decrease in body weight ±1 standard deviation for groups of 9 to 10 animals.
Compounds or vehicle (0.5% Methocel in sterile water) were administered by oral gavage once daily for 21 days following induction of arthritis in female Lewis rats via the sub plantar injection of 0.1 ml of light mineral oil containing 0.5 mg of Mycobacterium butyricum. Control animals were not injected with adjuvant.
(§4) Injected foot volumes were measured by mercury displacement plethysmography prior to induction of arthritis, and on days 4, 14 and 21 post induction of arthritis. The data represent the mean increase in foot volume ±1 standard deviation for groups of 9 to 10 animals. The extent of paw swelling in compound-treated animals was compared to the mean of that in the vehicle-treated group, and percentage inhibition was calculated for each dose level of compound.
as §4, with “Contralateral foot” for “Injected foot”, “prior to,” for “prior to induction of arthritis,”, “and at” for “and on”, “days” for “days 4,”
[…] Data represent the mean weights of organs in mg ±1 standard deviation for groups of 9 to 10 animals.
Total radiographic scores were derived from examination of lateral radiographs obtained prior to, and on day 21 post induction of arthritis.

[4] = biological target: T2, recombinant human PPARδ (GST-PPARδ) (Homo sapiens, UniProt Q03181); assay: Scintillation Proximity Assay, displacement of [3H2]Compound B from PPARδ; format: binding; settings: human PPARδ binding; read-out: IC50 (μM: SPA or BND) Delta
T2 construct: The full length human cDNAs for PPARδ and PPARα were subcloned into the pGEX-KT expression vector; made in house; host or cells: E. coli
T2 sequence (Q03181 1-441): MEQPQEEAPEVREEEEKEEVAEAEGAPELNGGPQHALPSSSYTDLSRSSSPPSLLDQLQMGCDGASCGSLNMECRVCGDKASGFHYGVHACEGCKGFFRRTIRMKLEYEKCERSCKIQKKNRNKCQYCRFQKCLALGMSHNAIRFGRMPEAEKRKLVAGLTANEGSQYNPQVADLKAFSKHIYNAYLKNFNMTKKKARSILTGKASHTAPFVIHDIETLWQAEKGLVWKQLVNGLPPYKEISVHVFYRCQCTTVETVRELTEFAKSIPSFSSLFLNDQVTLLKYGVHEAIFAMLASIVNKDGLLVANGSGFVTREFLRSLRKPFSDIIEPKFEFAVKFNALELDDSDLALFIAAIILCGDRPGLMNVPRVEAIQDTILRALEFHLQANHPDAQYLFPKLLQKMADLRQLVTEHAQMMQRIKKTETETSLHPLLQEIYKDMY
Text: as §1, §2, §3

[5] = biological target: T3, recombinant human PPARγ (GST-PPARγ) (Homo sapiens, UniProt P37231); assay: Scintillation Proximity Assay, displacement of [3H2]Compound A from PPARγ; format: binding; settings: SPA, radioligand
T3 construct: The full length human cDNA for PPARγ 2 was subcloned into the pGEX-2 T expression vector; made in house; host or cells: E. coli
T3 sequence (P37231 1-505): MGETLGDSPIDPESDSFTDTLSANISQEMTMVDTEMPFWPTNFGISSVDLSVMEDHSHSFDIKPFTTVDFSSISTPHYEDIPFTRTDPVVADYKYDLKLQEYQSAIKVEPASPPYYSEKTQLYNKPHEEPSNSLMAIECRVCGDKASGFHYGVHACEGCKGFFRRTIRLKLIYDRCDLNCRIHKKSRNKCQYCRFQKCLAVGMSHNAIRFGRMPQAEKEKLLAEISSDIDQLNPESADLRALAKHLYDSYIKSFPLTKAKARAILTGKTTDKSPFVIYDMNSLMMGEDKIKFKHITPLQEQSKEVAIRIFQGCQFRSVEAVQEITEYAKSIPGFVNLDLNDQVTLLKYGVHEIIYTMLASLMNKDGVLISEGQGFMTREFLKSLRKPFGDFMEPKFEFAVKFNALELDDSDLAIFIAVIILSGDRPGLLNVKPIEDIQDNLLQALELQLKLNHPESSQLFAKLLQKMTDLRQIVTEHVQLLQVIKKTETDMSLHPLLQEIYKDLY
Text: as §1, §2, §3

[6] = weight at necropsy, day of euthanasia 21 (Compound 1, indomethacin) or 15 (Compounds 2-6), mean ± SD

| Structure (SMILES) | PPAR Activity [1] | IC50 ([2]; human PPARα binding, read-out: IC50 (μM: SPA or BND) Alpha) [µM] | Change in Secondary Foot Volume Day 14-0 ([3]; contralateral paw, p.o. q.d., Compounds 1, 2, 4, 6 30 mg/kg/day, Compound 3 50, Compound 5 100, indomethacin 2, mean ± SD) [µL] | Secondary Foot Volume % Inhibition Compared to Vehicle Day 14-0 ([3]; contralateral paw, same doses p.o. q.d.) [%] | Change in Primary Foot Volume Day 4-0 ([3]; injected paw, p.o. q.d., Compounds 1, 2, 4, 6 30 mg/kg/day, Compound 3 50, Compound 5 100, indomethacin 2, mean ± SD) [µL] | Primary Foot Volume % Inhibition Compared to Vehicle Day 4-0 ([3]; injected paw, same doses p.o. q.d.) [%] | Change in Primary Foot Volume Day 14-0 ([3]; injected paw, same doses p.o. q.d., mean ± SD) [µL] | change in body weight Day 14-0 ([3]; p.o. q.d., Compounds 1, 2, 4, 6 30 mg/kg/day, Compound 3 50, Compound 5 100, indomethacin 2 mg/kg/day, mean ± SD) [grams] | prevention of swelling of primary or secondary paws ([3]; up to day 14, rats then euthanized) | Spleen [3, 6] [mg] | Thymus [3, 6] [mg] | IC50 [4] [µM] | Kd ([2]; SPA, radioligand) [nM] | Kd [5] [nM] |
| --- | --- | --- | --- | --- | --- | --- | --- | --- | --- | --- | --- | --- | --- | --- |
| O=C(O)c1c(Sc2ccccc2)c2cc(Cl)ccc2n1Cc1ccc(Cl)cc1 [Compound 3] | Gamma Antagonist | > 10 | 869 ± 291 | 0 | 1853 ± 262 | 0 | 2606 ± 587 | −6.6 ± 6.1 | failed to prevent swelling of either the primary or secondary paws | 720.5 ± 155.1 | 152.7 ± 27.9 | > 50 | – | – |
| CCCc1c(OCCCCOc2cccc(CC(=O)O)c2)ccc2c(-c3ccccc3)noc12 [Compound A, (3-(4-(3-phenyl-7-propyl-6-benz-[4,5]-isoxazoloxy)butyloxy))phenylacetic acid, reference compound] | – | – | – | – | – | – | – | – | – | – | – | – | ~10 | ~2.7 |
